pIC50: −log10 of the molar value.
Key:
RAW264.7 [1] = assay: Antiinflammatory activity in mouse RAW 264.7 cells assessed as inhibition of LPS-induced NO production at 10 uM measured after 24 hrs by Griess assay relative to control; assay type: functional; design: scale not given: the % may be the effect or the level left
RAW264.7 [2] = assay: Antiinflammatory activity in mouse RAW 264.7 cells assessed as inhibition of LPS-induced NO production measured after 24 hrs by Griess assay; assay type: functional, cell-based; conditions: RAW264.7, 24 h

Row | pIC50 (RAW264.7 [2]) | Compound | Activity (RAW264.7 [1]) [%]
1 | < 5.00 | CO[C@H]1CC(=O)O[C@@H]1[C@]1(C)CC(=O)c2c(cc(C)c(-c3c(C)cc4c(c3O)C(=O)C3=C(O)C[C@H](OC)[C@H](O)[C@]3(C)O4)c2O)O1 | 36.6
2 | < 5.00 | CO[C@H]1CC(=O)O[C@@H]1[C@@]1(C)CC(=O)c2c(cc(C)c(-c3c(C)cc(O)c4c3O[C@](C)([C@H]3OC(=O)C[C@@H]3OC)CC4=O)c2O)O1 | 7.6
3 | < 5.00 | CO[C@H]1CC(O)=C2C(=O)c3c(cc(C)c(-c4c(C)cc5c(c4O)C(=O)C4=C(O)C[C@H](OC)[C@H](O)[C@]4(C)O5)c3O)O[C@@]2(C)[C@H]1O | 52.7
4 | 5.29 | CO[C@H]1CC(=O)O[C@@H]1[C@@]1(C)CC(=O)c2c(cc(C)c(-c3c(C)cc4c(c3O)C(=O)C3=CC[C@H](OC)[C@H](O)[C@]3(C)O4)c2O)O1 | 84.4
5 | 5.28 | CO[C@H]1CC(=O)O[C@@H]1[C@@]1(C)CC(=O)c2c(cc(C)c(-c3c(C)cc4c(c3O)C(=O)C[C@](C)([C@H]3OC(=O)C[C@@H]3OC)O4)c2O)O1 | 72
6 | 5.89 | CO[C@H]1CC=C2C(=O)c3c(cc(C)c(-c4c(C)cc5c(c4O)C(=O)C4=C(O)C[C@H](OC)[C@H](O)[C@]4(C)O5)c3O)O[C@@]2(C)[C@H]1O | 89.8
7 | < 5.00 | CO[C@H]1CC(=O)O[C@@H]1[C@@]1(C)CC(=O)c2c(cc(C)c(-c3c(C)cc4c(c3O)C(=O)C3=C(O)C[C@H](OC)[C@H](O)[C@]3(C)O4)c2O)O1 | 13.2
8 | < 5.00 | CO[C@H]1CC(=O)O[C@@H]1[C@@]1(C)CC(=O)c2c(cc(C)c(-c3c(C)cc4c(c3O)C(=O)C[C@@](C)([C@H]3OC(=O)C[C@@H]3OC)O4)c2O)O1 | 16.2
9 | < 5.00 | CO[C@H]1CC(=O)O[C@@H]1[C@]1(C)CC(=O)c2c(O)cc(C)c(-c3c(C)cc4c(c3O)C(=O)C3=C(O)C[C@H](OC)[C@H](O)[C@]3(C)O4)c2O1 | 52.7
10 | < 5.00 | CO[C@H]1CC(=O)O[C@@H]1[C@]1(C)CC(=O)c2c(O)cc(C)c(-c3c(C)cc4c(c3O)C(=O)C3=CC[C@H](OC)[C@H](O)[C@]3(C)O4)c2O1 | 33.2
11 | < 5.00 | CO[C@H]1CC(=O)O[C@@H]1[C@]1(C)CC(=O)c2c(cc(C)c(-c3c(C)cc4c(c3O)C(=O)C[C@@](C)([C@H]3OC(=O)C[C@@H]3OC)O4)c2O)O1 | 5.9
12 | 5.66 | COc1cc(/C=C/C(=O)CC(=O)/C=C/c2ccc(O)c(OC)c2)ccc1O [CURCUMIN] | 79.2
